From US6730665B1, “Treatment of bone cancer” (Mayo Foundation for Medical Education and Research, priority 1999, dated 2004)

Tests used:
[1] = system: MG63 human osteosarcoma cells; test: Cell survival, viable cell count with trypan blue; format: cell-based; details: for cell survival: 20 and 50 μM
Experimental: (§1) MG63 and TE85 human osteosarcoma cells, and ROS 17/2.8 rat osteosarcoma cells were grown in DMEM/F12 phenol-red free medium containing 10% charcoal-stripped fetal bovine serum (FBS) and supplemented with 100 units/ml penicillin, 100 μg/ml streptomycin. Cell were incubated at 37° C. under 5% CO2 in air. Cells were plated at 5×10^4 cells per well into 24 well plates containing 1 ml of medium per well. After allowing the cells to attach overnight, media in the wells were replaced with fresh 1 ml medium. Human fetal osteoblasts (hFOB) cells and hFOB cells overexpressing estrogen receptor-alpha (hFOB-ERα) and estrogen receptor-beta (hFOB-ERβ) were grown in DMEM/F12 medium containing FBS, penicillin, streptomycin and Geneticin (300 μg/mL). The laboratory of Dr. B. L. Riggs at Mayo Clinic provided primary human osteoblast (HOB) cells. HOB cells were basically established from cancellous bone obtained as waste from orthopedic procedures and cultured as explants to generate the osteoblast-like monolayers as described by Borke et al., J. Clin. Endocrinol. Metab., 1988, 67:1299-1304. Human FOB cells and hFOB cells stably transfected with estrogen receptors (ERs) were maintained at 34° C., while all other cells were incubated at 37° C. under 5% CO2 in air.
(§2) Estrogen metabolites were diluted 1000 fold to give the final required concentrations in each well, and maintained for 72 hrs. The metabolites 2ME, 2OHE, and E2 were purchased from Sigma Chemical Company (St. Louis, Mo.). Stock solutions for each metabolite were made in 95% ethanol. Cell growth was measured by taking the viable cell count. At the end of metabolite treatment, cells were harvested, stained with trypan blue, and counted under a light microscope.
MG63 cells were treated with 0, 2, and 10 μM concentrations of 2ME in the presence or absence of 100 nM ICI for 72 hours. The cells were harvested and the viable cell counts were taken after staining with trypan blue.

[2] = system: osteosarcoma cells and immortalized cell lines; test: Cell survival, summary statement; format: cell-based; details: for impact on cell survival (in words): 2 μM, 72 hours; for reduction of cell survival: 20 μM
Experimental: as §1, §2

SMILES	impact on cell survival (in words) ([1]; 2 μM, 72 hrs)	cell survival ([1]; 72 hrs)	impact on cell survival (in words) [2]	reduction of cell survival [2]	impact on cell survival (in words) ([1]; 100 nM ICI alone, 72 hours)
C[C@]12CC[C@@H]3c4cc(O)c(O)cc4CC[C@H]3[C@@H]1CC[C@@H]2O [2OHE, 2-hydroxyestradiol]	little impact	about 40%	minimal impact	60%	–
C[C@]12CC[C@@H]3c4ccc(O)cc4C[C@@H](CCCCCCCCC[S+]([O-])CCCC(F)(F)C(F)(F)F)[C@H]3[C@@H]1CC[C@@H]2O (stereo partly shown) [ICI]	–	–	–	–	little impact
COc1cc2c(cc1O)CC[C@@H]1[C@@H]2CC[C@]2(C)C(=O)CC[C@@H]12 [2-methoxyestrone]	–	–	minimal impact	–	–
C[C@]12CC[C@@H]3c4ccc(O)cc4CC[C@H]3[C@@H]1CC[C@@H]2O [E2, 17β-estradiol]	little impact	~50%	minimal impact	50%	–
